The values that follow come from patent publication US8211892B2, “Tetrahydroquinoxaline urea derivatives” (Sanofi-Aventis, priority 2008, dated 2012).

Data set [1] deals with T1, recombinant 11βHSD1 protein (Homo sapiens, UniProt P28845).
T1 construct: made in house; host or cells: Saccharomyces cerevisiae
The experiment in a line: SPA (Scintillation Proximity Assay) test of in vitro inhibition of the enzyme 11βHSD1, 384-well format. To be noted: 3H-cortisone and NADPH, SPA beads, cortisol formed; read-out: IC50 (concentration which inhibits 50% of the activity of 11βHSD1). In kind it is biochemical. From the text: The compounds according to the invention formed the subject of pharmacological assays which make it possible to determine their inhibiting effect on the enzyme 11βHSD1, which is involved in the metabolism of lipids and the metabolism of glucose.
These assays consisted in measuring the in vitro inhibiting activity of the compounds of the invention on the enzyme 11βHSD1 by virtue of an SPA (Scintillation Proximity Assay) test in 384-well format. The recombinant 11βHSD1 protein was produced in the yeast S. cerevisiae. The reaction was carried out by incubating the enzyme in the presence of ^3H-cortisone and of NADPH, in the absence or in the presence of an increasing concentration of inhibitor. SPA beads coupled to an antimouse antibody, which are preincubated with an anticortisol antibody, made it possible to measure the amount of cortisol formed during the reaction.
On the technique in general: Scintillation proximity formats need no separation of bound from free tracer.

Data set [2] deals with T2, 11βHSD1 in the eyes (Homo sapiens, UniProt P28845).
T2 construct: The 11βHSD1 is located in the nonpigmented epithelial calls; host or cells: healthy volunteers (in vivo, ocular tissue)
To be noted: healthy volunteers, treatment for seven days; cited from earlier work.

T1 sequence (P28845 whole entry, species assumed): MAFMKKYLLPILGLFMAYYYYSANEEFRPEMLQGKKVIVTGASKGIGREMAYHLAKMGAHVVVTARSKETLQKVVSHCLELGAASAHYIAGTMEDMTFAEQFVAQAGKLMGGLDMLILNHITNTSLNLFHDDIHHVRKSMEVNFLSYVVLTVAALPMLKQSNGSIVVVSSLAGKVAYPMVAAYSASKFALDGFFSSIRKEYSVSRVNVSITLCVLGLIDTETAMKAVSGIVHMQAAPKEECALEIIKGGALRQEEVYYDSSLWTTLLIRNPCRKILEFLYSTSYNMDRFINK
T2 sequence (P28845 whole entry): as the sequence (P28845 whole entry, species assumed) above

In general, melting point refers to the temperature of the solid-liquid transition. Regarding `O=C(NC1C2CC3CC(C2)CC1C3)N1CCN(c2ccc(OCc3ncccn3)cc2)c2ccccc21` (centres unmarked) [Compound No. 3, 4-[4-(Pyrimidin-2-ylmethoxy)Phenyl]-3,4-dihydro-2H-quinoxaline-1-carboxylic Acid adamantan-2-ylamide], the melting point was in the range of 123 to 125 °C. Besides, in data set [1], the IC50 was determined as 405 nM. `CS(=O)(=O)N1CCC(O)(c2ccc(N3CCN(C(=O)N[C@H]4C5CC6CC4C[C@@](O)(C6)C5)c4ccccc43)cc2)CC1` [Compound No. 16, Trans-4-[4-(4-Hydroxy-1-(methanesulphonyl)Piperidin-4-yl)Phenyl]-3,4-dihydro-2H-quinoxaline-1-carboxylic Acid (5-hydroxy-adamantan-2-yl)Amide] gave a melting point of 160 °C. The IC50 in data set [1] turned out to be 28 nM. As to `CS(=O)(=O)N1CCN(c2ccc(N3CCN(C(=O)N[C@H]4C5CC6CC4C[C@@](CO)(C6)C5)c4ccccc43)cc2)CC1` [Compound No. 21, Trans-4-[4-(4-(Methanesulphonyl)Piperazin-1-yl)Phenyl]-3,4-dihydro-2H-quinoxaline-1-carboxylic Acid (5-(hydroxymethyl)Adamantan-2-yl)Amide], the melting point came to 160 °C. On the same count and under the same terms, next, `CS(=O)(=O)N1CCN(c2ccc(N3CCN(C(=O)N[C@H]4C5CC6CC4C[C@@](F)(C6)C5)c4ccccc43)cc2)CC1` [Compound No. 40, Trans-4-[4-(4-(Methanesulphonyl)Piperazin-1-yl)Phenyl]-3,4-dihydro-2H-quinoxaline-1-carboxylic Acid (5-fluoroadamantan-2-yl)Amide]: 165 to 200 °C. Same read-out and setting: next, `O=C(N[C@H]1C2CC3CC1C[C@@](O)(C3)C2)N1CCN(c2ccc(N3CCC(O)CC3)cc2)c2ccccc21` [Compound No. 51, Trans-4-[4-(4-Hydroxypiperidin-1-yl)Phenyl]-3,4-dihydro-2H-quinoxaline-1-carboxylic Acid (5-hydroxyadamantan-2-yl)Amide]: 131 °C. Consider `CC(=O)N[C@]12CC3CC(C1)[C@H](NC(=O)N1CCN(c4ccc(N5CCN(S(C)(=O)=O)CC5)cc4)c4ccccc41)C(C3)C2` [Compound No. 137, Trans-4-[4-(4-(Methanesulphonyl)Piperazin-1-yl)Phenyl]-3,4-dihydro-2H-quinoxaline-1-carboxylic Acid (5-acetylaminoadamantan-2-yl)Amide], for which the melting point came out at 250 °C. In data set [1], the IC50 was 130 nM. Take `CCS(=O)(=O)N1CCN(c2ccc(N3CCN(C(=O)N[C@H]4C5CC6CC4C[C@@](C(N)=O)(C6)C5)c4ccccc43)nc2)CC1` [Compound No. 149, Trans-4-[5-(4-(Ethanesulphonyl)Piperazin-1-yl)Pyridin-2-yl]-3,4-dihydro-2H-quinoxaline-1-carboxylic Acid (5-carbamoyladamantan-2-yl)Amide]: the melting point came out at 175 °C. Turning to `CC1(C)[C@@H](OC(=O)CCC(=O)O)CC[C@]2(C)[C@H]3C(=O)C=C4[C@@H]5C[C@@](C)(C(=O)O)CC[C@]5(C)CC[C@@]4(C)[C@]3(C)CC[C@@H]12` [carbenoxolone], the “reduction of the intraocular pressure (IOP)” value in data set [2] is recorded as 18%. `O=C(c1ccc(-c2csc(N3CCN(C(=O)NC4C5CC6CC(C5)CC4C6)c4ccccc43)n2)cc1)N1CCOCC1` (centres unmarked) [compound 6] gave a melting point of 163 to 169 °C. The IC50 in data set [1] stood at 624 nM. In turn, `O=C(NC1C2CC3CC1CC(O)(C3)C2)N1CCN(c2ccc(Oc3nccc(C(F)(F)F)n3)cc2)c2ccccc21` (centres unmarked) [compound 14] registered a melting point of 197 °C. Moreover, the IC50 in data set [1] worked out at 28 nM.

`CS(=O)(=O)N1CC=C(c2ccc(N3CCN(C(=O)NC4C5CC6CC4CC(O)(C6)C5)c4ccccc43)cc2)CC1` (centres unmarked) [compound 15]: the melting point was determined as 103 °C. In data set [1], the IC50 was 49 nM. `CC(C)N1CCN(C(=O)c2ccc(-c3ccc(N4CCN(C(=O)NC5C6CC7CC5CC(O)(C7)C6)c5ccccc54)cc3)nc2)CC1` (centres unmarked) [compound 27] registered a melting point of 127 °C. Besides, the IC50 in data set [1] is 17 nM.

Compound `O=C(NC1C2CC3CC1CC(O)(C3)C2)N1CCN(c2ccc(N3CCC(F)(F)CC3)cc2)c2ccccc21` (centres unmarked) [compound 30] had a melting point of 95 °C. The IC50 in data set [1] was 94 nM.

Turning to `CCS(=O)(=O)N1CCN(c2ccc(N3CCN(C(=O)N[C@H]4C5CC6CC4C[C@@](O)(C6)C5)c4ccccc43)cc2)CC1` [compound 34, trans-4-[4-(4-(Ethanesulphonyl)Piperazin-1-yl)Phenyl]-3,4-dihydro-2H-quinoxaline-1-carboxylic Acid (5-hydroxyadamantan-2-yl)Amide], the melting point was in the range of 138 to 160 °C.

As to `CC(C)Oc1ccc(-c2ccc(N3CCN(C(=O)NC4C5CC6CC4CC(C(N)=O)(C6)C5)c4ccccc43)cc2)nc1` (centres unmarked) [compound 85], the melting point lay within 193 to 194 °C. Moreover, the IC50 in data set [1] is 7 nM. `NC(=O)C12CC3CC(C1)C(NC(=O)N1CCN(c4ccc(N5CCN(S(=O)(=O)C6CCNCC6)CC5)cc4)c4ccccc41)C(C3)C2` (centres unmarked) [compound 95] gave a melting point of 230 °C. In data set [1], the IC50 came to 8 nM. The compound `CC(C)(C)N1CCN(c2ccc(N3CCN(C(=O)NC4C5CC6CC4CC(C(N)=O)(C6)C5)c4ccccc43)cc2)CC1` (centres unmarked) [compound 96] had a melting point of 228 °C. In addition, the IC50 in data set [1] came to 19 nM. Compound `O=C(NC1C2CC3CC1CC(O)(C3)C2)N1CCN(c2ccc(N3CCN(C4CC4)CC3)cn2)c2ccccc21` (centres unmarked) [compound 118] yielded a melting point of 161 °C. In addition, the IC50 in data set [1] was 8 nM.

For `O=C(NC1C2CC3CC1CC(O)(C3)C2)N1CCN(c2ccc(N3CCN(S(=O)(=O)C4CCC4)CC3)cn2)c2ccccc21` (centres unmarked) [compound 119], the melting point is 188 °C. Further, in data set [1], the IC50 was 7 nM.

Turning to `COCCOCCS(=O)(=O)N1CCN(c2ccc(N3CCN(C(=O)NC4C5CC6CC4CC(C(N)=O)(C6)C5)c4ccccc43)cc2)CC1` (centres unmarked) [compound 125], in data set [1], the IC50 came to 7 nM. Same read-out and setting: the figure for `CC(C)(C)N1CCN(c2ccc(N3CCN(C(=O)NC4C5CC6CC4CC(C(N)=O)(C6)C5)c4ccccc43)nc2)CC1` (centres unmarked) [compound 128] is 4 nM. For the compound `CS(=O)(=O)N1CCC2(CCN(c3ccc(N4CCN(C(=O)NC5C6CC7CC5CC(O)(C7)C6)c5ccccc54)cc3)C2)C1` (centres unmarked) [compound 132], the melting point was 127 °C. The IC50 in data set [1] worked out at 187 nM. Turning to `CC(C)(CO)N1CCN(c2ccc(N3CCN(C(=O)N[C@H]4C5CC6CC4C[C@@](C(N)=O)(C6)C5)c4ccccc43)cc2)CC1` [compound 152, Trans-4-{4-[4-(2-Hydroxy-1,1-dimethylethyl)Piperazin-1-yl]phenyl}-3,4-dihydro-2H-quinoxaline-1-carboxylic Acid (5-carbamoyladamantan-2-yl)Amide], the melting point fell in the range of 194 to 200 °C.

Consider `CC(C)CN1CCN(c2ccc(N3CCN(C(=O)N[C@H]4C5CC6CC4C[C@@](C(N)=O)(C6)C5)c4ccccc43)nc2)CC1` [compound 158, Trans-4-[5-(4-Isobutylpiperazin-1-yl)Pyridin-2-yl]-3,4-dihydro-2H-quinoxaline-1-carboxylic Acid (5-carbamoyladamantan-2-yl)Amide], for which the melting point was 209 °C. Still for that read-out and setting: next, `N#C[C@]12CC3CC(C1)[C@H](NC(=O)N1CCN(c4ccc(N5CCN(S(=O)(=O)C6CC6)CC5)cn4)c4ccccc41)C(C3)C2` [compound 165, Trans-4-[5-(4-(Cyclopropanesulphonyl)Piperazin-1-yl)Pyridin-2-yl]-3,4-dihydro-2H-quinoxaline-1-carboxylic Acid (5-cyanoadamantan-2-yl)Amide]: 188 °C; `CC(C)(C)N1CCC(c2ccc(N3CCN(C(=O)N[C@H]4C5CC6CC4C[C@@](C(N)=O)(C6)C5)c4ccccc43)nc2)CC1` [compound 170, Trans-4-(1′-(tert-Butyl)-1′,2′,3′,4′,5′,6′-hexahydro-[3,4′]bipyridinyl-6-yl)-3,4-dihydro-2H-quinoxaline-1-carboxylic Acid (5-carbamoyladamantan-2-yl)Amide]: 228 °C; `CS(=O)(=O)CCN1CCN(c2ccc(N3CCN(C(=O)N[C@H]4C5CC6CC4C[C@@](C(N)=O)(C6)C5)c4ccccc43)nc2)CC1` [compound 178, Trans-4-{5-[4-(2-(Methanesulphonyl)Ethyl)Piperazin-1-yl]-pyridin-2-yl}-3,4-dihydro-2H-quinoxaline-1-carboxylic Acid (5-carbamoyladamantan-2-yl)Amide]: 204 °C.
